This is an account of results in ChEMBL document CHEMBL1811754, “Sesquiterpene and xanthone derivatives from the sea fan-derived fungus Aspergillus sydowii PSU-F154” (J Nat Prod, 2011).

The source made the active and inactive calls. No cut-off for these calls is given here.

This experiment relates to Radical scavenging activity. Kind of experiment: Antioxidant activity assessed as DPPH radical scavenging activity after 30 mins by spectrophotometry. It is filed as functional. (In general: Loss of DPPH colour is used to gauge radical scavenging.)

Turning to `CO[C@@](C)(CCCC(C)C)c1ccc(C(=O)O)cc1O`, the outcome was inactive.

With `COC(=O)[C@@]1(O)c2c(oc3cc(C)cc(O)c3c2=O)CC[C@H]1O`, the result was inactive.

In the case of `COC(=O)[C@@H]1c2c(oc3cc(CO)cc(O)c3c2=O)C=C[C@H]1O`, the IC50 was determined as 17 µM.

In the case of `C/C(=C\CCC(C)C)c1ccc(CO)cc1O`, the outcome was inactive.

With `Cc1c(CCC(C)C)oc2cc(C(=O)O)ccc12`, the outcome was inactive.

On to `COC(=O)c1c(O)ccc2oc3cc(CO)cc(O)c3c(=O)c12`, for which the result was inactive.

As to `COC(=O)c1cccc2oc3cc(CO)cc(O)c3c(=O)c12`, the outcome was inactive.

As for `O=C1N[C@@H](Cc2c[nH]c3ccccc23)C(=O)N[C@H]1Cc1ccccc1`, the result was inactive.

As for `COC(=O)c1cccc2oc3cc(C)cc(O)c3c(=O)c12`, the result was inactive.

For orientation: IC50 means the concentration needed to halve the response being measured.
